In PubChem BioAssay (NCI) one finds GI50 and TGI data, which are given here for 8 compounds.

Molecules are shown by their SMILES.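 Results reflect a 48-hour exposure of cells in 96-well plates to compound at five concentrations. GI50 is the concentration that inhibits growth by half. The concentration for full growth arrest is given as TGI.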

Among the test systems are LOX IMVI melanoma; UACC-257 melanoma; SF-539 CNS; T-47D breast; U251 CNS; COLO 205 colon; SR leukemia; CAKI-1 renal; PC-3 prostate; HOP-62 NSCLC.
Holding throughout (assay): NCI anticancer screen, dose series, 48 h

Consider `COc1cc2c(cc1C)NC(=O)/C2=C\c1cccc(Oc2ccccc2)c1`, for which the GI50 was 12.9 µM with LOX IMVI melanoma; 21.7 µM in the assay with UACC-257 melanoma; 19.4 µM with SF-539 CNS; 11.4 µM in the assay on T-47D breast; 12.4 µM with U251 CNS; 16.6 µM in the assay on COLO 205 colon. Moreover, the GI50 with SR leukemia is 5.68 µM; with CAKI-1 renal it was 19.4 µM; with PC-3 prostate it was 12 µM. The TGI is 26.4 µM in the assay on LOX IMVI melanoma; 52.3 µM in the assay on UACC-257 melanoma; 34.5 µM in the assay with SF-539 CNS; 81.4 µM with T-47D breast; 24.9 µM in the assay with U251 CNS; 33.5 µM in the assay on COLO 205 colon. The results for the TGI with SR leukemia, with CAKI-1 renal and in the assay with PC-3 prostate were 31.4 µM, 41.2 µM and 25.2 µM, respectively.
As for `COc1ccc(Cn2cc3c(c2-c2ccc(OC)cc2)CCc2cnoc2-3)cc1`, the GI50 was 0.706 µM in the assay on LOX IMVI melanoma; 1.57 µM with UACC-257 melanoma; 0.307 µM in the assay with SF-539 CNS; 0.533 µM with T-47D breast; 0.444 µM in the assay with U251 CNS; 0.296 µM in the assay with COLO 205 colon. For the same compound, the GI50 in the assay with HOP-62 NSCLC is 0.539 µM; in the assay with SR leukemia, 0.331 µM; in the assay on CAKI-1 renal, 0.309 µM; with PC-3 prostate, 0.602 µM. The TGI in the assay with LOX IMVI melanoma was over 100 µM; in the assay on UACC-257 melanoma, over 100 µM; with SF-539 CNS it was 2.13 µM; in the assay with T-47D breast it was over 100 µM; in the assay with U251 CNS, over 100 µM; in the assay on COLO 205 colon it was 0.815 µM. Also, the TGI is over 100 µM with HOP-62 NSCLC, 1.94 µM with SR leukemia, over 100 µM in the assay with CAKI-1 renal and over 100 µM with PC-3 prostate.
Take `O=C(O)c1cccc(N=Nc2c(S(=O)(=O)O)ccc3c2C(=O)c2ccccc2C3=O)c1O`: the TGI in the assay on LOX IMVI melanoma, in the assay with UACC-257 melanoma, in the assay with SF-539 CNS, with T-47D breast, in the assay with U251 CNS and with COLO 205 colon was over 100 µM in each case. Further, the TGI in the assay on HOP-62 NSCLC, with SR leukemia, in the assay with CAKI-1 renal and with PC-3 prostate was over 100 µM each time.
For the compound `CN(CC(=O)N(Cc1ccc(C2CCCCC2)cc1)c1ccc(C(=O)O)c(O)c1)S(=O)(=O)c1c(F)c(F)c(F)c(F)c1F`, the GI50 is 1.6 µM with LOX IMVI melanoma; 3.93 µM with UACC-257 melanoma; 18.2 µM in the assay on SF-539 CNS; 8.14 µM with T-47D breast; 1.81 µM in the assay with U251 CNS; 12.7 µM in the assay on COLO 205 colon. In addition, the GI50 with HOP-62 NSCLC was 13.4 µM; with SR leukemia, 1.9 µM; in the assay with CAKI-1 renal, 5.09 µM; in the assay on PC-3 prostate, 12.2 µM. In addition, the TGI in the assay with LOX IMVI melanoma was determined as 3.01 µM; with UACC-257 melanoma it was 8.53 µM; in the assay on SF-539 CNS it was 35 µM; in the assay on T-47D breast, 27 µM; in the assay with U251 CNS, 3.82 µM; in the assay on COLO 205 colon it was 26.5 µM. The TGI stood at 30.4 µM with HOP-62 NSCLC, 4.28 µM in the assay with SR leukemia, 10.4 µM in the assay with CAKI-1 renal and 27.7 µM in the assay with PC-3 prostate.
In the case of `COc1cc2c(cc1Nc1nc(Nc3ccsc3C(N)=O)c3cc[nH]c3n1)N(C(=O)CN(C)C)CCC2(C)C`, the GI50 in the assay with LOX IMVI melanoma is 1.99 µM; in the assay with UACC-257 melanoma, 0.0753 µM; with SF-539 CNS, 3.35 µM; in the assay with T-47D breast it was 3.08 µM; with U251 CNS, 3.09 µM; in the assay on COLO 205 colon, under 0.0025 µM. Further, the GI50 in the assay on HOP-62 NSCLC is 1.65 µM; in the assay with SR leukemia, 0.00596 µM; in the assay on CAKI-1 renal, 1.37 µM; in the assay with PC-3 prostate it was 2.55 µM. Further, the TGI in the assay on LOX IMVI melanoma worked out at 6.08 µM; in the assay with UACC-257 melanoma, 4.34 µM; in the assay on SF-539 CNS it was 7.05 µM; with T-47D breast, 7.11 µM; with U251 CNS, 6.25 µM; in the assay with COLO 205 colon it was 0.887 µM. For the same compound, the TGI in the assay with HOP-62 NSCLC came to 5.3 µM; in the assay on SR leukemia, 4.6 µM; with CAKI-1 renal, 6.69 µM; in the assay on PC-3 prostate, 7.01 µM.
For `O=C(/C=C/c1cc([N+](=O)[O-])ccc1Cl)c1ccccc1`, the GI50 with LOX IMVI melanoma is 2.6 µM; in the assay with UACC-257 melanoma, 16.2 µM; in the assay on SF-539 CNS, 16.6 µM; in the assay with T-47D breast, 27.9 µM; with U251 CNS it was 2.56 µM; with COLO 205 colon, 23 µM. For the same compound, the GI50 in the assay with HOP-62 NSCLC was 25 µM; in the assay with SR leukemia, 3.54 µM; with CAKI-1 renal, 5.32 µM; in the assay on PC-3 prostate, 24.5 µM. For the same compound, the TGI is 6.79 µM in the assay on LOX IMVI melanoma; 33.6 µM in the assay with UACC-257 melanoma; 32.7 µM in the assay on SF-539 CNS; over 100 µM with T-47D breast; 8.04 µM in the assay on U251 CNS; 48.2 µM in the assay with COLO 205 colon. Also, the TGI in the assay on HOP-62 NSCLC is 63.5 µM; in the assay with SR leukemia, over 100 µM; in the assay with CAKI-1 renal, 31.3 µM; with PC-3 prostate, 82.9 µM.
For `COc1cc(O)c(C(=O)/C=C/c2ccc(O)cc2)c(O)c1[C@@H]1C[C@H](CCc2ccc(O)cc2)O[C@H](c2ccc(O)cc2)C1`, the GI50 in the assay on LOX IMVI melanoma is 2.93 µM; with UACC-257 melanoma, 5.47 µM; in the assay with SF-539 CNS, 2.61 µM; in the assay with T-47D breast, 3.12 µM; in the assay with U251 CNS, 3.31 µM; with COLO 205 colon it was 2.72 µM. The GI50 was 3.17 µM with HOP-62 NSCLC, 2.23 µM in the assay with SR leukemia, 13.6 µM in the assay with CAKI-1 renal and 3.37 µM in the assay on PC-3 prostate. Also, the TGI with LOX IMVI melanoma was determined as 8.37 µM; in the assay with UACC-257 melanoma, 20.2 µM; in the assay on SF-539 CNS it was 7.4 µM; in the assay with T-47D breast it was 17.5 µM; in the assay with U251 CNS, 11.5 µM; in the assay with COLO 205 colon it was 8.44 µM. Besides, the TGI came to 11.2 µM in the assay on HOP-62 NSCLC, 4.65 µM with SR leukemia, 28.9 µM in the assay on CAKI-1 renal and 12.5 µM in the assay with PC-3 prostate.
For `N#CSCC1CC(O)(c2ccccc2)CC(c2ccc(F)cc2)O1` (stereo not drawn), the GI50 was 1.7 µM in the assay on LOX IMVI melanoma; 3.29 µM with UACC-257 melanoma; 1.96 µM with SF-539 CNS; 1.78 µM with T-47D breast; 1.7 µM with U251 CNS; 2.02 µM in the assay on COLO 205 colon. Also, the GI50 in the assay on HOP-62 NSCLC was 1.99 µM; in the assay with SR leukemia, 0.572 µM; in the assay on CAKI-1 renal it was 2.54 µM; in the assay on PC-3 prostate, 2.49 µM. Besides, the TGI in the assay on LOX IMVI melanoma amounted to 3.1 µM; in the assay on UACC-257 melanoma, 11.9 µM; with SF-539 CNS, 3.66 µM; in the assay on T-47D breast it was 4.98 µM; with U251 CNS, 3.13 µM; with COLO 205 colon, 4.25 µM. Also, the TGI in the assay on HOP-62 NSCLC was 3.61 µM; in the assay with SR leukemia, 3.19 µM; in the assay on CAKI-1 renal it was 8.5 µM; in the assay with PC-3 prostate, 8.38 µM.
